Measured values taken from US20100056515A1, “BENZIMIDAZOLE COMPOUNDS” (priority 2006, published 2010).

Assays:
[1] = molecular target: T1, human CRF receptor (Homo sapiens, UniProt P34998); assay: Measurement of CRF Binding Inhibitory Rate (receptor binding experiment with 125I-CRF); details: human CRF receptor expressing CHO cellular membrane fraction; 50 pM ovine 125I-CRF; 0.05 nM to 10 μM of compound; room temperature 1.5 hr; read-out: IC50 values (CRF binding inhibition)
T1 construct: expressed in transfected cells; host or cells: CHO cells (membrane fraction)
T1 sequence (P34998 24-415): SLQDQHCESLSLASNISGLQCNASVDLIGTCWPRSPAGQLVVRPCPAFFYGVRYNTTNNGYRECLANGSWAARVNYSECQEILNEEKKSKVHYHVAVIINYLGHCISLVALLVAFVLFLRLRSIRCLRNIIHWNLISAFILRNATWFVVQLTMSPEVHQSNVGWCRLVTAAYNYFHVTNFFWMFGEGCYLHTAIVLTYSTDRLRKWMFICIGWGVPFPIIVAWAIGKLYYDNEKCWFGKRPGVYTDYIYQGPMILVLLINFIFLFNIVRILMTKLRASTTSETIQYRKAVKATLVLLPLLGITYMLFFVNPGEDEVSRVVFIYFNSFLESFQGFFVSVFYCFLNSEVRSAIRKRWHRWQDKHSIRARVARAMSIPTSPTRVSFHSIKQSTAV
Method: Measurement of CRF Binding Inhibitory Rate
A receptor binding experiment was carried out using a human CRF receptor expressing CHO cellular membrane fraction and ovine CRF, [^125I]-tyr^0(^125I-CRF). 1000 nM of a test compound was incubated with 1 μg of human CRF receptor expressing CHO cellular membrane fraction and 50 pM of ^125I-CRF in a binding assay buffer (50 mM Tris-HCl, 5 mM EDTA, 10 mM MgCl2, 0.05% CHAPS, 0.1% BSA, 0.5 mM PMSF, 0.1 μg/mL pepstatin, 20 μg/mL leupeptin, pH 7.5). In addition, for measuring nonspecific binding (NSB), 0.1 μM unlabelled human Urocortin was incubated with 5 μg of human CRF receptor expressing CHO cellular membrane fraction and 50 pM of ^125I-CRF in a binding assay buffer. After a binding reaction was carried out at room temperature for 1.5 hr, the membrane was entrapped on a glass filter (UniFilter plate GF-C/Perkin Elmer) by suction filtration using a cell harvester (Perkin Elmer), and washed with ice-cooled 50 mM Tris-HCl (pH 7.5). After drying the glass filter, a liquid scintillation cocktail (Microscinti 0, Perkin Elmer) was added, and the radioactivity of ^125I-CRF remaining on a glass filter was measured using Topcount (Perkin Elmer).
(TB-SB)/(TB-NSB)×100 (SB: radioactivity when a compound is added, TB: maximum binding radioactivity, NSB: nonspecific binding radioactivity) were calculated to obtain binding inhibitory rates under the range of the presence from 0.05 nM to 10 μM of each compounds. The IC50 values were calculated by using GraphPad Prism software.

Compound | melting point | IC50 [1]
CCC(CC)c1ccc(OC)c2nc(Oc3c(Cl)cc(N(C)C)cc3Cl)n(C)c12 [Example 2, 3,5-Dichloro-4-{[7-(1-ethylpropyl)-4-methoxy-1-methyl-1H-benzimidazol-2-yl]oxy}-N,N-dimethylaniline] | 176 to 177 °C | < 1000 nM
CCC(CC)c1ccc(OC)c2nc(Oc3ccc(N(C)C)cc3Cl)n(C)c12 [Example 3, 3-Chloro-4-{[7-(1-ethylpropyl)-4-methoxy-1-methyl-1H-benzimidazol-2-yl]oxy}-N,N-dimethylaniline] | 122 to 123 °C | < 1000 nM
CCC(CC)c1ccc(OC)c2nc(Oc3ccc(Cl)cc3N(C)C)n(C)c12 [Example 4, 5-Chloro-2-{[7-(1-ethylpropyl)-4-methoxy-1-methyl-1H-benzimidazol-2-yl]oxy}-N,N-dimethylaniline] | 122 to 123 °C | < 1000 nM
CCC(CC)c1ccc(OC)c2nc(Oc3ccc(C)nc3N(C)C)n(C)c12 [Example 5, 3-{[7-(1-Ethylpropyl)-4-methoxy-1-methyl-1H-benzimidazol-2-yl]oxy}-N,N,6-trimethylpyridin-2-amine] | 143 to 144 °C | < 1000 nM
CCC(CC)c1ccc(OC)c2nc(Oc3ccc(C(C)=O)cc3C)n(C)c12 [Example 6, 1-(4-{[7-(1-Ethylpropyl)-4-methoxy-1-methyl-1H-benzimidazol-2-yl]oxy}-3-methylphenyl)ethanone] | 114 to 115 °C | < 1000 nM
CCC(CC)c1ccc(OC)c2nc(Oc3c(Cl)cc(Cl)cc3N(C)C)n(C)c12 [Example 7, 3,5-Dichloro-2-{[7-(1-ethylpropyl)-4-methoxy-1-methyl-1H-benzimidazol-2-yl]oxy}-N,N-dimethylaniline] | 173 to 175 °C | < 1000 nM
CCC(CC)c1ccc(OC)c2nc(Oc3ccc(OC(F)(F)F)cc3Br)n(C)c12 [Example 10, 2-[2-Bromo-4-(trifluoromethoxy)phenoxy]-7-(1-ethylpropyl)-4-methoxy-1-methyl-1H-benzimidazole] | 117 to 118 °C | < 1000 nM
CCC(CC)c1ccc(OC)c2nc(Oc3ccc(C(F)(F)F)cc3N(C)C)n(C)c12 [Example 12, 2-{[7-(1-Ethylpropyl)-4-methoxy-1-methyl-1H-benzimidazol-2-yl]oxy}-N,N-dimethyl-5-(trifluoromethyl)aniline] | 131 to 133 °C | < 1000 nM
CCC(CC)c1ccc(OC)c2nc(Oc3ccc(OC(F)(F)F)cc3CN(C)C)n(C)c12 [Example 13, 1-[2-{[7-(1-Ethylpropyl)-4-methoxy-1-methyl-1H-benzimidazol-2-yl]oxy}-5-(trifluoromethoxy)phenyl]-N,N-dimethylmethanamine] | 95 to 97 °C | < 1000 nM
CCC(CC)c1ccc(OC)c2nc(Oc3c(C)cc(OC(F)(F)F)cc3CN(C)C)n(C)c12.Cl [Example 15, 1-[2-{[7-(1-Ethylpropyl)-4-methoxy-1-methyl-1H-benzimidazol-2-yl]oxy}-3-methyl-5-(trifluoromethoxy)phenyl]-N,N-dimethylmethanamine Hydrochloride] | 92 to 94 °C | < 1000 nM
CCC(CC)c1ccc(OC)c2nc(Nc3ccc(Cl)cc3Br)n(C)c12 [Example 19, N-(2-Bromo-4-chlorophenyl)-7-(1-ethylpropyl)-4-methoxy-1-methyl-1H-benzimidazol-2-amine] | 193 to 195 °C | < 1000 nM
CCC(CC)c1ccc(OC)c2nc(Nc3ccc(Cl)cc3Cl)n(C)c12 [Example 20, N-(2,4-Dichlorophenyl)-7-(1-ethylpropyl)-4-methoxy-1-methyl-1H-benzimidazol-2-amine] | 198 to 200 °C | < 1000 nM
CCC(CC)c1ccc(Cl)c2nc(Oc3c(Cl)cc(Cl)cc3N(C)C)n(C)c12 [Example 24, 3,5-Dichloro-2-{[4-chloro-7-(1-ethylpropyl)-1-methyl-1H-benzimidazol-2-yl]oxy}-N,N-dimethylaniline] | 172 to 173 °C | < 1000 nM
CCC(CC)c1ccc(Cl)c2nc(Oc3c(Cl)cc(Cl)cc3N3CCOCC3)n(C)c12 [Example 25, 4-Chloro-2-(2,4-dichloro-6-morpholin-4-ylphenoxy)-7-(1-ethylpropyl)-1-methyl-1H-benzimidazole] | 155 to 157 °C | < 1000 nM
CCC(CC)c1ccc(Cl)c2nc(Oc3c(Cl)cc(Cl)cc3N3CCN(C)CC3)n(C)c12 [Example 26, 4-Chloro-2-[2,4-dichloro-6-(4-methylpiperazin-1-yl)phenoxy]-7-(1-ethylpropyl)-1-methyl-1H-benzimidazole] | 162 to 164 °C | < 1000 nM
CCC(CC)c1ccc(Cl)c2nc(Oc3c(Cl)cc(Cl)cc3-n3ccnc3)n(C)c12 [Example 27, 4-Chloro-2-[2,4-dichloro-6-(1H-imidazol-1-yl)phenoxy]-7-(1-ethylpropyl)-1-methyl-1H-benzimidazole] | 134 to 135 °C | < 1000 nM
CCC(CC)c1ccc(Cl)c2nc(Oc3c(Cl)cc(Cl)cc3N3CCCC3)n(C)c12 [Example 29, 4-Chloro-2-(2,4-dichloro-6-pyrrolidin-1-ylphenoxy)-7-(1-ethylpropyl)-1-methyl-1H-benzimidazole] | 209 to 210 °C | < 1000 nM
CCC(CC)c1ccc(OC)c2nc(Oc3ccc(OC(F)(F)F)cc3N(C)C)n(C)c12 [Example 30, 2-{[7-(1-Ethylpropyl)-4-methoxy-1-methyl-1H-benzimidazol-2-yl]oxy}-N,N-dimethyl-5-(trifluoromethoxy)aniline] | 93 to 95 °C | < 1000 nM
CCC(CC)c1ccc(Cl)c2nc(Oc3c(Cl)cc(Cl)cc3C#N)n(C)c12 [Example 31, 3,5-Dichloro-2-{[4-chloro-7-(1-ethylpropyl)-1-methyl-1H-benzimidazol-2-yl]oxy}benzonitrile] | 155 to 156 °C | < 1000 nM
CCC(CC)c1ccc(Cl)c2nc(Oc3c(Cl)cc(Cl)cc3S(N)(=O)=O)n(C)c12 [Example 32, 3,5-Dichloro-2-{[4-chloro-7-(1-ethylpropyl)-1-methyl-1H-5 benzimidazol-2-yl]oxy}benzenesulfonamide] | 133 to 134 °C | < 1000 nM
CCC(CC)c1ccc(Cl)c2nc(Oc3c(C)cc(C(C)=O)cc3Cl)n(C)c12 [Example 35, 1-(3-Chloro-4-{[4-chloro-7-(1-ethylpropyl)-1-methyl-1H-benzimidazol-2-yl]oxy}-5-methylphenyl)ethanone] | 160 to 161 °C | < 1000 nM
CCC(CC)c1ccc(Cl)c2nc(Oc3c(C)cc(SC)cc3Cl)n(C)c12 [Example 36, 4-Chloro-2-[2-chloro-6-methyl-4-(methylthio)phenoxy]-7-(1-ethylpropyl)-1-methyl-1H-benzimidazole] | 141 to 143 °C | < 1000 nM
CCC(CC)c1ccc(Cl)c2nc(Oc3c(C)cc([S+](C)[O-])cc3Cl)n(C)c12 (centres unmarked) [Example 37, 4-Chloro-2-[2-chloro-6-methyl-4-(methylsulfinyl)phenoxy]-7-(1-ethylpropyl)-1-methyl-1H-benzimidazole] | 182 to 184 °C | < 1000 nM
CCC(CC)c1ccc(Cl)c2nc(Oc3c(Br)cc(C(F)(F)F)nc3C)n(C)c12 [Example 75, 2-{[4-Bromo-2-methyl-6-(trifluoromethyl)pyridin-3-yl]oxy}-4-chloro-7-(1-ethylpropyl)-1-methyl-1H-benzimidazole] | – | < 1000 nM
CCC(CC)c1ccc(Cl)c2nc(Oc3c(C(F)(F)F)cc(C(F)(F)F)nc3C)n(C)c12 [Example 76, 4-Chloro-7-(1-ethylpropyl)-1-methyl-2-{[2-methyl-4,6-bis(trifluoromethyl)pyridin-3-yl]oxy}-1H-benzimidazole] | – | < 1000 nM
CCC(CC)c1ccc(Cl)c2nc(Oc3c(C)cc(OC(F)(F)F)cc3CN(C)C)n(C)c12 [Example 84, 1-[2-{[4-Chloro-7-(1-ethylpropyl)-1-methyl-1H-benzimidazol-2-yl]oxy}-3-methyl-5-(trifluoromethoxy)phenyl]-N,N-dimethylmethanamine] | – | < 1000 nM
CCC(CC)c1ccc(O)c2nc(Nc3c(C)cc(Cl)cc3Cl)n(C)c12 [Example 90, 2-[(2,4-Dichloro-6-methylphenyl)amino]-7-(1-ethylpropyl)-1-methyl-1H-benzimidazol-4-ol] | – | < 1000 nM
